In patent US20100249064A1, “METHODS AND COMPOSITIONS FOR TREATING DISEASES AND CONDITIONS INVOLVING HIGHER MOLECULAR WEIGHT HYALURONAN” (University of Chicago, priority 2007, published 2010):

What was measured:
HABP2 = HABP2 protein expression in EC by immunoblotting; assay type: cell-based, human; conditions: 100 nM HA, EC lysates, immunoblot
Method: Immunoblotting. Proteins in the EC lysates or mouse lung homogenates were solubilized in solubilization buffer, separated on SDS-PAGE, and analyzed by immunoblotting with specific antisera and HRP conjugated secondary antibody with enhanced chemiluminescence detection (Amersham Biosciences).
Treatment with LPS, low and high MW hyaluronan. EC were treated with 1.0 μg/ml LPS, 100 nM HMW-HA (˜1 million Daltons) or 100 nM LMW-HA (˜2,500 Daltons) for 24 hours and EC media and lysates were obtained.
Cell culture preparation and treatment. Human pulmonary microvascular EC (HPMVEC) (Cambrex), grown in EBM-2 complete medium (Cambrex) at 37° C. in a humidified atmosphere of 5% CO2, 95% air, with passages 6-10 used for experimentation will be treated with or without 1.0 μg/ml LPS, 100 nM HMW-HA and/or 100 nM LMW-HA in the presence or absence of exogenous purified recombinant HABP2 polyanion binding domain and/or C1INH (Novus Biologicals), HABP2 and/or C1INH overexpression vector or siRNA (scramble, HABP2, C1INH, PAR-1, PAR-2, PAR-3, PAR-4, tenascin-C or perlecan) or the potent hyaluronidase inhibitor, L-ascorbic acid 6-hexadecanoate (Botzki et al., 2004) (Sigma). Extracellular media and/or treated EC will either be analyzed for protein expression, HABP2 protease activity, hyaluronidase activity or Trans-endothelial Electrical Resistance (TER). […]

[1] = test system: CD44s, CD44v10, S1P1 and S1P3 receptors in lipid rafts; assay: CD44 isoform / S1P receptor recruitment and association in lipid raft (CEM) fractions; assay type: cell-based, human; conditions: for CD44 isoform association with S1P receptors in lipid rafts: 100 nM HA, immunoprecipitation from lipid raft fractions
Method: Lipid Raft Isolation—Caveolin-enriched microdomain known as lipid rafts were isolated from human lung EC as described (Singleton and Bourguignon, 2004; Singleton et al., 2005). Materials insoluble in Triton X-100-insoluble were mixed with 0.6 ml of cold 60% Optiprep™ and then overlaid with 0.6 ml of 40%-20% Optiprep™. The resulting gradients were then centrifuged (35,000 rpm) in SW60 rotor for 12 h at 4° C. and different fractions were collected and analyzed. In some cases, different fractions were analyzed for total cholesterol content using a cholesterol assay kit (Amplex Red™, Invitrogen (Molecular Probes), Eugene, Oreg.).
Immunoprecipitation and Immunoblotting—Cellular materials associated within the 20% Optiprep™ fractions (lipid raft fraction) were incubated with IP buffer A (50 mM HEPES (pH 7.5), 150 mM NaCl, 20 mM MgCl2, 1% Nonidet P-40 (NP-40), 0.4 mM Na3VO4, 40 mM NaF, 50 μM okadaic acid, 0.2 mM phenylmethylsulfonyl fluoride, 1:250 dilution of Calbiochem protease inhibitor mixture 3) or IP buffer B (50 mM HEPES (pH 7.5), 150 mM NaCl, 20 mM MgCl2, 1% Triton X-100, 0.1% SDS, 0.4 mM Na3VO4, 40 mM NaF, 50 μM okadaic acid, 0.2 mM phenylmethylsulfonyl fluoride, 1:250 dilution of Calbiochem protease inhibitor mixture 3) as indicated. The samples were then immunoprecipitated with anti-S1P1 receptor or anti-S1P3 receptor IgG followed by SDS-PAGE in 4-15% polyacrylamide gels, and transfer onto Immobilon™ membranes. Development occurred using specific primary and secondary antibodies. Enhanced chemiluminescence (Amersham Biosciences) for visualization of immunoreactive bands then took place.
Determination of Complex Formation between S1P1 Receptor/CD44s and S1P3 Receptor/CD44v10—EC monolayers were serum-starved for one hour, then treated with High or Low MW HA (100 nM) (5-30 min.) and solubilized in IP buffer A (see above). Following immunoprecipitation with either rabbit anti-S1P1 receptor or mouse anti-S1P3 receptor antibody, the samples were subjected to SDS-PAGE in 4-15% polyacrylamide gels and transfer onto Immobilon™ membranes (Millipore Corp., Bedford, Mass.). Nonspecific sites were then blocked with 5% bovine serum albumin, and the blots were then incubated with either rat anti-CD44 (IM-7, common domain) antibody, rabbit anti-S1P1 antibody or mouse anti-S1P3 antibody followed by incubation with horseradish peroxidase (HRP)-labeled goat anti-rabbit, goat anti-mouse or goat anti-rat IgG. Enhanced chemiluminescence (Amersham Biosciences) for visualization of immunoreactive bands then took place.

Substance: hyaluronan [HMW-HA]
- HABP2 protein expression in EC (HABP2; listed as high MW hyaluronan): reduced
- recruitment of CD44s to the lipid raft fraction ([1]; 100 nM HA, 5, 15 or 30 min): rapidly (5 min.) recruit CD44s to the lipid raft fraction
- CD44 isoform association with S1P receptors in lipid rafts [1]: induced CD44s association in lipid rafts with S1P1

Substance: hyaluronan [LMW-HA, reference compound]
- HABP2 protein expression in EC (HABP2; listed as low molecular weight (MW) hyaluronan): significantly enhanced
- recruitment of CD44s to the lipid raft fraction ([1]; 100 nM HA, 5, 15 or 30 min): rapidly (5 min.) recruit CD44s to the lipid raft fraction
- recruitment of CD44v10 to the lipid raft fraction ([1]; 100 nM HA, 5, 15 or 30 min): robust but delayed recruitment of CD44v10 (after 15 min.)
- CD44 isoform association with S1P receptors in lipid rafts [1]: induced an initial CD44s association with S1P1 which was followed by CD44v10 association with S1P3 receptor in lipid raft fractions
